Read-outs that look alike come from different tables or passages of the source.
Tests used:
[1] = system: Amaranthus rudis (AMATA), tall water hemp; test: Postemergence herbicide evaluation, growth of Amaranthus rudis (AMATA); assay type: in vivo; details: Amaranthus tuberculatus, post-emergence, read-out: Ave. AMATA, percent reduction in plant size relative to the untreated control; for pest or weed control at 280 g/ha: 280 g ae/ha; for pest or weed control at 560 g/ha: 560 g ae/ha
[2] = system: Ambrosia artemisiifolia (AMBEL), common ragweed; test: Postemergence herbicide evaluation, growth of Ambrosia artemisiifolia (AMBEL); assay type: in vivo; details: Ambrosia artemisiifolia, post-emergence, read-out: AVE. AMBEL, percent reduction in plant size relative to the untreated control; for pest or weed control at 280 g/ha: 280 g ae/ha; for pest or weed control at 560 g/ha: 560 g ae/ha
[3] = system: Abutilon theophrasti (ABUTH), velvetleaf; test: Postemergence herbicide evaluation, growth of Abutilon theophrasti (ABUTH); assay type: in vivo; details: Abutilon theophrasti, post-emergence, read-out: AVE. ABUTH, percent reduction in plant size relative to the untreated control; for pest or weed control at 280 g/ha: 280 g ae/ha; for pest or weed control at 560 g/ha: 560 g ae/ha
[4] = system: Chenopodium album (CHEAL), common lambsquarters; test: Postemergence herbicide evaluation, growth of Chenopodium album (CHEAL); assay type: in vivo; details: Chenopodium album, post-emergence, read-out: Ave. CHEAL, percent reduction in plant size relative to the untreated control; for pest or weed control at 280 g/ha: 280 g ae/ha; for pest or weed control at 560 g/ha: 560 g ae/ha
[5] = system: glyphosate resistant Conyza canadensis (L.) (ERICA), horseweed; test: Postemergence herbicide evaluation, growth of Conyza canadensis (ERICA); assay type: in vivo; details: Erigeron canadensis, post-emergence, read-out: Ave. ERICA, percent reduction in plant size relative to the untreated control; for pest or weed control at 280 g/ha: 280 g ae/ha; for pest or weed control at 560 g/ha: 560 g ae/ha
[6] = Volatility of compounds measured by thermogravimetric analysis (TGA); assay type: physicochemical
[7] = system: weeds ABUTH, AMATA, AMBEL, CHEAL, ERICA; test: Postemergence herbicide evaluation, overall average % weed control (ABUTH, AMATA, AMBEL, CHEAL, ERICA); assay type: in vivo; details: post-emergence, read-out: Overall Ave % Weed Control; for pest or weed control at 280 g/ha: 280 g ae/ha; for pest or weed control at 560 g/ha: 560 g ae/ha

SMILES: O=C(COc1ccc(Cl)cc1Cl)O/N=C/c1ccccc1 [Compound A2, (E)-benzaldehyde O-(2-(2,4-dichlorophenoxy)acetyl) oxime]
- pest or weed control at 280 g/ha ([1]; 168 h, 7 DAA): 68%
- pest or weed control at 560 g/ha ([1]; 168 h, 7 DAA): 75%
- pest or weed control at 280 g/ha ([1]; 336 h, 14 DAA): 70%
- pest or weed control at 560 g/ha ([1]; 336 h, 14 DAA): 88%
- pest or weed control at 280 g/ha ([1]; 504 h, 21 DAA): 73%
- pest or weed control at 560 g/ha ([1]; 504 h, 21 DAA): 87%
- pest or weed control at 280 g/ha ([2]; 168 h, 7 DAA): 65%
- pest or weed control at 560 g/ha ([2]; 168 h, 7 DAA): 73%
- pest or weed control at 280 g/ha ([2]; 336 h, 14 DAA): 92%
- pest or weed control at 560 g/ha ([2]; 336 h, 14 DAA): 96%
- pest or weed control at 280 g/ha ([2]; 504 h, 21 DAA): 91%
- pest or weed control at 560 g/ha ([2]; 504 h, 21 DAA): 100%
- pest or weed control at 280 g/ha ([3]; 168 h, 7 DAA): 85%
- pest or weed control at 560 g/ha ([3]; 168 h, 7 DAA): 85%
- pest or weed control at 280 g/ha ([3]; 336 h, 14 DAA): 94%
- pest or weed control at 560 g/ha ([3]; 336 h, 14 DAA): 96%
- pest or weed control at 280 g/ha ([3]; 504 h, 21 DAA): 98%
- pest or weed control at 560 g/ha ([3]; 504 h, 21 DAA): 96%
- pest or weed control at 280 g/ha ([4]; 168 h, 7 DAA): 70%
- pest or weed control at 560 g/ha ([4]; 168 h, 7 DAA): 73%
- pest or weed control at 280 g/ha ([4]; 336 h, 14 DAA): 70%
- pest or weed control at 560 g/ha ([4]; 336 h, 14 DAA): 85%
- pest or weed control at 280 g/ha ([4]; 504 h, 21 DAA): 73%
- pest or weed control at 560 g/ha ([4]; 504 h, 21 DAA): 87%
- pest or weed control at 280 g/ha ([5]; 168 h, 7 DAA): 68%
- pest or weed control at 560 g/ha ([5]; 168 h, 7 DAA): 73%
- pest or weed control at 280 g/ha ([5]; 336 h, 14 DAA): 93%
- pest or weed control at 560 g/ha ([5]; 336 h, 14 DAA): 85%
- pest or weed control at 280 g/ha ([5]; 504 h, 21 DAA): 90%
- pest or weed control at 560 g/ha ([5]; 504 h, 21 DAA): 98%
- TGA Data (rate of weight loss, volatility) [6]: 0.8 µg/min
- pest or weed control at 280 g/ha ([7]; 168 h, 7 DAA): 71%
- pest or weed control at 560 g/ha ([7]; 168 h, 7 DAA): 76%
- pest or weed control at 280 g/ha ([7]; 336 h, 14 DAA): 84%
- pest or weed control at 560 g/ha ([7]; 336 h, 14 DAA): 90%
- pest or weed control at 280 g/ha ([7]; 504 h, 21 DAA): 87%
- pest or weed control at 560 g/ha ([7]; 504 h, 21 DAA): 93%

SMILES: C/C(=N\OC(=O)COc1ccc(Cl)cc1Cl)c1ccccc1 [Compound A1, Acetophenone O-(2-(2,4-dichlorophenoxy)acetyl) oxime]
- pest or weed control at 280 g/ha ([1]; 168 h, 7 DAA): 73%
- pest or weed control at 560 g/ha ([1]; 168 h, 7 DAA): 78%
- pest or weed control at 280 g/ha ([1]; 336 h, 14 DAA): 85%
- pest or weed control at 560 g/ha ([1]; 336 h, 14 DAA): 87%
- pest or weed control at 280 g/ha ([1]; 504 h, 21 DAA): 80%
- pest or weed control at 560 g/ha ([1]; 504 h, 21 DAA): 82%
- pest or weed control at 280 g/ha ([2]; 168 h, 7 DAA): 65%
- pest or weed control at 560 g/ha ([2]; 168 h, 7 DAA): 80%
- pest or weed control at 280 g/ha ([2]; 336 h, 14 DAA): 88%
- pest or weed control at 560 g/ha ([2]; 336 h, 14 DAA): 97%
- pest or weed control at 280 g/ha ([2]; 504 h, 21 DAA): 95%
- pest or weed control at 560 g/ha ([2]; 504 h, 21 DAA): 100%
- pest or weed control at 280 g/ha ([3]; 168 h, 7 DAA): 83%
- pest or weed control at 560 g/ha ([3]; 168 h, 7 DAA): 85%
- pest or weed control at 280 g/ha ([3]; 336 h, 14 DAA): 96%
- pest or weed control at 560 g/ha ([3]; 336 h, 14 DAA): 97%
- pest or weed control at 280 g/ha ([3]; 504 h, 21 DAA): 97%
- pest or weed control at 560 g/ha ([3]; 504 h, 21 DAA): 100%
- pest or weed control at 280 g/ha ([4]; 168 h, 7 DAA): 70%
- pest or weed control at 560 g/ha ([4]; 168 h, 7 DAA): 70%
- pest or weed control at 280 g/ha ([4]; 336 h, 14 DAA): 78%
- pest or weed control at 560 g/ha ([4]; 336 h, 14 DAA): 89%
- pest or weed control at 280 g/ha ([4]; 504 h, 21 DAA): 83%
- pest or weed control at 560 g/ha ([4]; 504 h, 21 DAA): 98%
- pest or weed control at 280 g/ha ([5]; 168 h, 7 DAA): 73%
- pest or weed control at 560 g/ha ([5]; 168 h, 7 DAA): 73%
- pest or weed control at 280 g/ha ([5]; 336 h, 14 DAA): 90%
- pest or weed control at 560 g/ha ([5]; 336 h, 14 DAA): 90%
- pest or weed control at 280 g/ha ([5]; 504 h, 21 DAA): 93%
- pest or weed control at 560 g/ha ([5]; 504 h, 21 DAA): 98%
- TGA Data (rate of weight loss, volatility) [6]: 0.5 µg/min
- pest or weed control at 280 g/ha ([7]; 168 h, 7 DAA): 73%
- pest or weed control at 560 g/ha ([7]; 168 h, 7 DAA): 77%
- pest or weed control at 280 g/ha ([7]; 336 h, 14 DAA): 87%
- pest or weed control at 560 g/ha ([7]; 336 h, 14 DAA): 92%
- pest or weed control at 280 g/ha ([7]; 504 h, 21 DAA): 89%
- pest or weed control at 560 g/ha ([7]; 504 h, 21 DAA): 95%

Source: patent US20260042731A1, “(2,4-DICHLOROPHENOXY)ACETIC ACID ANALOGS” (CORTEVA AGRISCIENCE LLC, priority 2022, published 2026)
